Where two headings read alike, the source gives them in different places.
Columns and labels:
[1] = tested on: patients with major depressive disorder (MDD); assay: Clinical Global Impressions-Severity (CGI-S) score, Clinical Study A; format: in vivo, human; conditions: MMRM; for LS mean change from baseline, CGI-S score / LSMD vs placebo, CGI-S score: week 6
Procedure: (§1) A global, multicenter, randomized, double-blind (DB), placebo-controlled, parallel-group, fixed-dose study compared cariprazine 1.5 mg/day and cariprazine 3 mg/day with placebo as an adjunctive treatment to ongoing ADT in outpatients with a diagnosis of MDD (via the Diagnostic and Statistical Manual of Mental Disorders, Fifth Edition [DSM-5]) having an inadequate response, as measured by the modified Antidepressant Treatment Response Questionnaire (ATRQ), to 1 to 3 antidepressants administered during the current episode at an adequate dose and adequate duration. Adequate dose was defined as a dose above the minimum labeled dose (per package insert). Adequate duration was defined as continuous ADT treatment for at least 6 weeks, with a minimum of 3 of 6 weeks above the minimal dose.
(§2) The study consisted of up to 14 days screening (with up to an additional 7 days of needed) and washout of prohibited medications followed by 6 weeks of double-blind (DB) treatment followed by a 4-week safety follow-up. At the end of the screening period, patients meeting the entry criteria for the study were randomized (1:1:1) to 1 of 3 double-blind treatment groups. Study treatment groups were: cariprazine 1.5 mg/day+antidepressant therapy and cariprazine 3 mg/day+antidepressant therapy. The control group received matching placebo+antidepressant therapy.
(§3) Dosage/Dose Regimen: Investigational product (cariprazine or placebo) in the form of capsules packaged in blister packs will be provided. No investigational product was administered during the screening/washout period; patients continued the same antidepressant and dose they were on at screening. Patients were taking more than one antidepressant at screening, regardless of the indication, discontinued all other antidepressants prior to baseline (Visit 2). During the double-blind treatment period (6 weeks), patients were administered 1 capsule orally per day in addition to their ongoing ADT. Patients in the 1.5 mg/day+ADT arm were administered 1.5 mg+ADT starting at Visit 2 (Week 0). Patients in the 3 mg/day+ADT arm were administered 1.5 mg+ADT starting at Visit 2 (Week 0) for 2 weeks and then titrate to 3 mg/day+ADT starting at Visit 4 (Week 2). Patients were supplied with identically appearing capsules of either cariprazine 1.5 mg, cariprazine 3 mg, or placebo.
(§4) A randomized, double-blind, placebo-controlled, multicenter trial with 759 participants was conducted in United States, Bulgaria, Estonia, Germany, Hungary, Ukraine, and the United Kingdom. Following a screening period of up to 14 days (with up to an additional 7 days if needed), which included a washout of prohibited psychotropic medications except for ongoing ADT, patients with a partial response to their antidepressant monotherapy were randomized into three treatment groups (1:1:1). One group received cariprazine 1.5 mg/d+ADT, one received cariprazine 3.0 mg/d+ADT, and one group received placebo+ADT. All participants randomized to cariprazine began on 1.5 mg/d; cariprazine 1.5 mg/d patients remained at that dosage, while cariprazine 3.0 mg/d patients received 1.5 mg/d for 2 weeks and increased to 3.0 mg/d on day 15.
(§5) The primary and secondary efficacy parameters were change from baseline to week 6 in Montgomery-Åsberg Depression Rating Scale (MADRS) total score and Clinical Global Impressions-Severity (CGI-S) score, respectively (screening, baseline, and weeks 1, 2, 4, and 6). Additional efficacy parameters (screening, baseline, and ≥1 double-blind visit) included: MADRS response (≥50% MADRS total score reduction) and remission (MADRS total score ≤10); change from baseline in HAMD-17 total score and Hamilton Anxiety Rating Scale (HAM-A) total score (32); and Clinical Global Impressions-Improvement (CGI-I) score and response (CGI-I score ≤2).
The CGI-S (Guy 1976) is a clinician-rated scale that measures the overall severity of a patient's illness in comparison with the severity in other patients the physician has observed. […]

[2] = tested on: patients with major depressive disorder (MDD); assay: Clinical Global Impressions-Improvement (CGI-I) score and response, Clinical Study A; format: in vivo, human; conditions: for CGI-I response rate (score ≤2): LOCF; for CGI-I LS Mean (change from baseline to week 6) / LSMD vs placebo, CGI-I: MMRM
Procedure: as §1, §2, §3, §4
as §5, with “≤2). […]” for “≤2).”

[3] = tested on: patients with major depressive disorder (MDD); assay: Hamilton Depression Rating Scale-17 (HAMD-17) total score, Clinical Study A; format: in vivo, human; conditions: ANCOVA and LOCF; for LSMD vs placebo, HAMD-17: week 6
Procedure: as §1, §2, §3
A randomized, double-blind, placebo-controlled, multicenter trial with 759 participants was conducted in United States, Bulgaria, Estonia, Germany, Hungary, Ukraine, and the United Kingdom. […]

[4] = tested on: patients with major depressive disorder (MDD); assay: Hamilton Anxiety Rating Scale (HAM-A) total score, Clinical Study A; format: in vivo, human; conditions: for LS mean change from baseline to week 6, HAM-A / LSMD vs placebo, HAM-A: MMRM; for HAM-A remission rate (total score ≤7) / HAM-A remission, odds ratio vs placebo / HAM-A response rate (≥50% score reduction from baseline) / HAM-A response, odds ratio vs placebo / LSMD vs placebo, HAM-A: week 6; for HAM-A remission rate (total score ≤7) / HAM-A remission, odds ratio vs placebo / HAM-A response rate (≥50% score reduction from baseline) / HAM-A response, odds ratio vs placebo: LOCF
Procedure: as §1, §2, §3, §4, §5
The Hamilton Anxiety Rating Scale (HAM-A) (Hamilton 1959) is a clinician-rated scale which consists of 14 items, each rated on a 5-point scale ranging from 0 (not present) to 4 (very severe). […]

[5] = tested on: MDD patients who had inadequate response to ongoing antidepressant treatment; conditions: adjunctive, Durgam et al. 2016, cited from earlier work

In the case of `CN(C)C(=O)N[C@H]1CC[C@H](CCN2CCN(c3cccc(Cl)c3Cl)CC2)CC1` [Cariprazine, trans-N-{4-[2-[4-(2,3-dichlorophenyl)piperazin-1-yl]ethyl]cyclohexyl}-N′,N′-dimethylurea], the “LS Mean (SE) change from baseline, CGI-S score” value (from here on “LS Mean (SE) change”) ([1]; 1.5 mg/day + ADT, week 1) is reported as −0.3 (0.1), the “LSMD (95% CI) vs placebo + ADT, CGI-S score” value (from here on “LSMD (95% CI) vs placebo + ADT”) ([1]; 1.5 mg/day + ADT, week 1) is reported as −0.1 (−0.2, 0) and the “LS Mean (SE) change” value ([1]; 1.5 mg/day + ADT, week 2) is reported as −0.7 (0.1). The “LSMD (95% CI) vs placebo + ADT” value ([1]; 1.5 mg/day + ADT, week 2) was −0.1 (−0.2, 0.1), the “LS Mean (SE) change” value ([1]; 1.5 mg/day + ADT, week 4) was −1.1 (0.1) and the “LSMD (95% CI) vs placebo + ADT” value ([1]; 1.5 mg/day + ADT, week 4) was −0.3 (−0.4, −0.1). The “LS mean change from baseline, CGI-S score” value ([1]; 1.5 mg/day + ADT) was −1.4 (0.1), the “LSMD vs placebo, CGI-S score” value ([1]; 1.5 mg/day + ADT) was −0.3 (−0.5, −0.1) and the “LS Mean (SE) change” value ([1]; 3 mg/day + ADT, week 1) was −0.3 (0.1). The “LSMD (95% CI) vs placebo + ADT” value ([1]; 3 mg/day + ADT, week 1) was 0 (−0.1, 0.1), the “LS Mean (SE) change” value ([1]; 3 mg/day + ADT, week 2) was −0.6 (0.1) and the “LSMD (95% CI) vs placebo + ADT” value ([1]; 3 mg/day + ADT, week 2) was 0 (−0.2, 0.1). The “LS Mean (SE) change” value ([1]; 3 mg/day + ADT, week 4) was −1.0 (0.1), the “LSMD (95% CI) vs placebo + ADT” value ([1]; 3 mg/day + ADT, week 4) was −0.1 (−0.3, 0.1) and the “LS mean change from baseline, CGI-S score” value ([1]; 3 mg/day + ADT) was −1.3 (0.1). The “LSMD vs placebo, CGI-S score” value ([1]; 3 mg/day + ADT) was −0.2 (−0.4, 0), the “CGI-I response rate (score ≤2)” value ([2]; 1.5 mg/d + ADT, week 6) was 51.2% and the “CGI-I LS Mean (change from baseline to week 6)” value ([2]; 1.5 mg/d + ADT, week 6) was 2.6. The “LSMD vs placebo, CGI-I” value ([2]; 1.5 mg/d + ADT, week 6) was −0.3, the “CGI-I responders (score ≤2)” value ([2]; 1.5 mg/day + ADT, week 1) was 29 (11.6) n (%) and the “CGI-I response, odds ratio vs placebo (95% CI)” value ([2]; 1.5 mg/day + ADT, week 1) was 2.0 (1.0, 3.8). For the same molecule, the “CGI-I responders (score ≤2)” value ([2]; 1.5 mg/day + ADT, week 2) was 67 (26.8) n (%), the “CGI-I response, odds ratio vs placebo (95% CI)” value ([2]; 1.5 mg/day + ADT, week 2) was 1.4 (0.9, 2.1) and the “CGI-I responders (score ≤2)” value ([2]; 1.5 mg/day + ADT, week 4) was 115 (46.0) n (%). For the same molecule, the “CGI-I response, odds ratio vs placebo (95% CI)” value ([2]; 1.5 mg/day + ADT, week 4) was 1.6 (1.1, 2.3), the “CGI-I responders (score ≤2)” value ([2]; 1.5 mg/day + ADT, week 6) was 128 (51.2) n (%) and the “CGI-I response rate (score ≤2)” value ([2]; 3.0 mg/d + ADT, week 6) was 50.4%. The “CGI-I LS Mean (change from baseline to week 6)” value ([2]; 3 mg/d + ADT, week 6) was 2.6, the “LSMD vs placebo, CGI-I” value ([2]; 3 mg/d + ADT, week 6) was −0.3 and the “CGI-I responders (score ≤2)” value ([2]; 3 mg/day + ADT, week 1) was 20 (7.9) n (%). The “CGI-I response, odds ratio vs placebo (95% CI)” value ([2]; 3 mg/day + ADT, week 1) was 1.3 (0.6, 2.6), the “CGI-I responders (score ≤2)” value ([2]; 3 mg/day + ADT, week 2) was 62 (24.6) n (%) and the “CGI-I response, odds ratio vs placebo (95% CI)” value ([2]; 3 mg/day + ADT, week 2) was 1.2 (0.8, 1.9). The “CGI-I responders (score ≤2)” value ([2]; 3 mg/day + ADT, week 4) was 102 (40.5) n (%), the “CGI-I response, odds ratio vs placebo (95% CI)” value ([2]; 3 mg/day + ADT, week 4) was 1.3 (0.9, 1.8) and the “CGI-I responders (score ≤2)” value ([2]; 3 mg/day + ADT, week 6) was 127 (50.4) n (%). The “LS mean change from baseline to week 6, HAMD-17 total score” value ([3]; 1.5 mg/d + ADT) was −12.7, the “LSMD vs placebo, HAMD-17” value ([3]; 1.5 mg/d + ADT) was −2.1 and the “LS mean change from baseline to week 6, HAMD-17 total score” value ([3]; 3 mg/d + ADT) was −11.9. For the same molecule, the “LSMD vs placebo, HAMD-17” value ([3]; 3 mg/d + ADT) was −1.2, the “LS mean change from baseline to week 6, HAM-A” value ([4]; 1.5 mg/d + ADT) was −9.1 and the “HAM-A remission rate (total score ≤7)” value ([4]; 1.5 mg/d + ADT) was 28.7%. For the same molecule, the “HAM-A remission, odds ratio vs placebo” value ([4]; 1.5 mg/d + ADT) was 1.2, the “HAM-A response rate (≥50% score reduction from baseline)” value ([4]; 1.5 mg/d + ADT) was 40.9% and the “HAM-A response, odds ratio vs placebo” value ([4]; 1.5 mg/d + ADT) was 1.3. The “LSMD vs placebo, HAM-A” value ([4]; 1.5 mg/d + ADT) was −1.3, the “LS mean change from baseline to week 6, HAM-A” value ([4]; 3 mg/d + ADT) was −8.6 and the “HAM-A remission rate (total score ≤7)” value ([4]; 3.0 mg/d + ADT) was 27.9%. The “HAM-A remission, odds ratio vs placebo” value ([4]; 3.0 mg/d + ADT) was 1.1, the “HAM-A response rate (≥50% score reduction from baseline)” value ([4]; 3.0 mg/d + ADT) was 41.0% and the “HAM-A response, odds ratio vs placebo” value ([4]; 3.0 mg/d + ADT) was 1.3. The “LSMD vs placebo, HAM-A” value ([4]; 3 mg/d + ADT) was −0.8, the “LSMD vs placebo, MADRS total score” value ([5]; 1-2 mg per day variable dosing) was −0.9 and the “LSMD vs placebo, MADRS total score” value ([5]; 2-4.5 mg per day variable dosing) was −2.2.
